In US20070249623A1, “1-(Indole-6-Carbonyl-D-Phenylglycinyl)-4-(1-Methylpiperidin-4-Yl)Piperazine D-Tartrate” (Eli Lilly and Company Patent Division, priority 2004, published 2007):
Where two headings read alike, the source gives them in different places.

Legend:
equilibrium solubility = assay type: physicochemical; details: thermodynamic from solid, 25° C., measured as the free base
[1] = moisture sorption isotherm (vacuum microbalance); assay type: physicochemical; details: ambient temperature, once the dihydrate had been formed
Procedure: A moisture sorption isotherm of the D-tartrate crystals was also determined using a vacuum microbalance, with a 40° C. drying step prior to initial data collection. With the initial drying step, an initial 6% weight loss was observed, consistent with the removal of the waters of crystallization. As the relative humidity was increased, the sample resorbed water, with rehydration being completed when the relative humidity reached about 20%.

[2] = solid form stability at high relative humidity and in aqueous suspension; assay type: physicochemical
Description: Salts of 1-(indole-6-carbonyl-D-phenylglycinyl)-4-(1-methylpiperidin-4-yl)piperazine that form crystalline solids are disclosed in Examples 48a (hydrochloride salt) and 48b (difumarate salt) of WO 01/96323. […] Thus, the form disclosed in WO 02/100847 as Form 1 is obtained as thin needles. The thin needle morphology has disadvantages for formulation, however, because of, inter alia, clustering and low bulk density. […] The form disclosed in WO 02/100847 as Form 2 has the disadvantage, inter alia, that the particle size is very small, resulting in extremely slow filtration.

Factor Xa = Factor Xa (Homo sapiens, UniProt P00742); details: as disclosed in WO 00/76971; cited from earlier work
Sequence of Factor Xa (P00742 235-488 limits assumed): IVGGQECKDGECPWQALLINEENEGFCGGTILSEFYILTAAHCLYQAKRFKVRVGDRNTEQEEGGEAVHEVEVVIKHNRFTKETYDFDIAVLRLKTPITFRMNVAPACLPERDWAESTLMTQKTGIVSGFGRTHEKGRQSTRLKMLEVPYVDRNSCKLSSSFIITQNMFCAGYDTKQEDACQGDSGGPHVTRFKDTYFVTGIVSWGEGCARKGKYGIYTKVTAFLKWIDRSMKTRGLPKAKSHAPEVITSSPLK
Sequence of Factor Xa (P00742 41-179 partner limits assumed): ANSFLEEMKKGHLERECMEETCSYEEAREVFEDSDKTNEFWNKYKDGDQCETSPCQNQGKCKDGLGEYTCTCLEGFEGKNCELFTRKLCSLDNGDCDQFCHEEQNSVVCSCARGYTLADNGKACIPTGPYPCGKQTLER

## CN1CCC(N2CCN(C(=O)[C@H](NC(=O)c3ccc4cc[nH]c4c3)c3ccccc3)CC2)CC1.O.O.O=C(O)C(O)C(O)C(=O)O [D-tartrate crystals, 1-(Indole-6-carbonyl-D-phenylglycinyl)-4-(1-methylpiperidin-4-yl)piperazine D-Tartrate Dihydrate]
Equilibrium solubility; simulated gastric fluid, 0.01 M HCl, read-out: equilibrium solubility in 0.01 M HCl
  solubility thermodynamic: ≥ 125 mg/mL
Equilibrium solubility; water, read-out: equilibrium solubility in water
  solubility thermodynamic: ≥ 126 mg/mL
[1]
  stability of the dihydrate to relative humidity: remained stable between 5 and 95% relative humidity

## CN1CCC(N2CCN(C(=O)[C@H](NC(=O)c3ccc4cc[nH]c4c3)c3ccccc3)CC2)CC1.O=C(O)/C=C/C(=O)O.O=C(O)/C=C/C(=O)O [Form 1]
[2]; above 80% relative humidity
  form conversion under extremely high relative humidity: convert to a different (higher) hydrate
[2]; aqueous suspensions
  form conversion in aqueous suspensions: convert into the form disclosed in WO 02/100847 as Form 2

## CN1CCC(N2CCN(C(=O)[C@H](NC(=O)c3ccc4cc[nH]c4c3)c3ccccc3)CC2)CC1 [1-(indole-6-carbonyl-D-phenylglycinyl)-4-(1-methylpiperidin-4-yl)-piperazine]
Factor Xa
  inhibition of Factor Xa: potent and selective inhibitor of Factor Xa
